The results in this text go back to ChEMBL document CHEMBL3991601, “The target landscape of clinical kinase drugs” (Science, 2017).

Calls of active or inactive are those of the source.

One experiment deals with DNA topoisomerase 2-beta (Homo sapiens, UniProt Q02880).
For experiment [1], the target named is T1, MAP/microtubule affinity-regulating kinase 4 (Homo sapiens, UniProt Q96L34).
T1 sequence (Q96L34 whole entry): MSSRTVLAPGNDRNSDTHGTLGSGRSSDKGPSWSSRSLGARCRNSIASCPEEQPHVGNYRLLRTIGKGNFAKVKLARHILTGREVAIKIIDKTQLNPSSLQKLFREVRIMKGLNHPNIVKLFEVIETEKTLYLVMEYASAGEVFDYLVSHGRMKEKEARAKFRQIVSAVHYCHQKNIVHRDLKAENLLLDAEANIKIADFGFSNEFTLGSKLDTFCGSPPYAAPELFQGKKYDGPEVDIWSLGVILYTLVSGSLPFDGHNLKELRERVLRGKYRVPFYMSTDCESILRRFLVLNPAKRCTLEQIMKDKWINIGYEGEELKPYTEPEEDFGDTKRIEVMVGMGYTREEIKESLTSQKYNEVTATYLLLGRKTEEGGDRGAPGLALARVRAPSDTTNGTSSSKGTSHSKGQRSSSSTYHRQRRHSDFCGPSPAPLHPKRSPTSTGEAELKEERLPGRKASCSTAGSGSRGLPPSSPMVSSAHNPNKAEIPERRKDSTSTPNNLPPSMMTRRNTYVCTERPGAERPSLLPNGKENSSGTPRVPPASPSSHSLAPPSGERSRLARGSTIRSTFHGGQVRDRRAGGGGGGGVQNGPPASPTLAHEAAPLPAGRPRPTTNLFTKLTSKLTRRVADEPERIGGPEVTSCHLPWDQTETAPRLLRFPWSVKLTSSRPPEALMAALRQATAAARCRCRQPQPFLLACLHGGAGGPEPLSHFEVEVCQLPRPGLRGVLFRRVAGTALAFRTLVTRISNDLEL

A further experiment concerns the target Adenosine kinase (Homo sapiens, UniProt P55263).
Experiment [2] has as its target T2, Mitogen-activated protein kinase kinase kinase kinase 3 (Homo sapiens, UniProt Q8IVH8).
T2 sequence (Q8IVH8 whole entry): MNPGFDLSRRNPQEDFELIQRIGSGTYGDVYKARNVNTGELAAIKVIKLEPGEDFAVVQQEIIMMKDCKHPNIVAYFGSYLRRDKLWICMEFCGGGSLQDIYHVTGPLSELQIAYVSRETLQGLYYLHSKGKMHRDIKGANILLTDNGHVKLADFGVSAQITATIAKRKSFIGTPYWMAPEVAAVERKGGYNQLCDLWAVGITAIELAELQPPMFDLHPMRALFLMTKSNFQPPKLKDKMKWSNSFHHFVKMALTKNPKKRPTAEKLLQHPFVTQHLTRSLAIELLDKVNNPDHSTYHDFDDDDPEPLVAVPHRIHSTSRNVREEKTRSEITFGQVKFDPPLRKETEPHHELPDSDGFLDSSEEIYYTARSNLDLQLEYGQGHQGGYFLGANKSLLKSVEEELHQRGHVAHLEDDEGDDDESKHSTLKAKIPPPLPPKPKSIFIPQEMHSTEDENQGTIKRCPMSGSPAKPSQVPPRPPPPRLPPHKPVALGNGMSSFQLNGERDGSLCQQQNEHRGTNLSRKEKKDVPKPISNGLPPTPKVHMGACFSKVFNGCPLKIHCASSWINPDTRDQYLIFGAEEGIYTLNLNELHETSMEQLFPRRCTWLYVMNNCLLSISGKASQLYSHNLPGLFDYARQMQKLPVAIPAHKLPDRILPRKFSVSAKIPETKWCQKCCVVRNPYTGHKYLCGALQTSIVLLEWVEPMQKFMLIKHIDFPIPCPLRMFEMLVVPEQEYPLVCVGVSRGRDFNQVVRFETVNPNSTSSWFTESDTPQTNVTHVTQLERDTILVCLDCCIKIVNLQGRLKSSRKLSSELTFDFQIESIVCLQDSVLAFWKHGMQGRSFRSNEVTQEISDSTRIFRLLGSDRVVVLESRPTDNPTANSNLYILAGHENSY

In experiment [3] the target is T3, Serine/threonine-protein kinase NLK (Homo sapiens, UniProt Q9UBE8).
T3 sequence (Q9UBE8 whole entry): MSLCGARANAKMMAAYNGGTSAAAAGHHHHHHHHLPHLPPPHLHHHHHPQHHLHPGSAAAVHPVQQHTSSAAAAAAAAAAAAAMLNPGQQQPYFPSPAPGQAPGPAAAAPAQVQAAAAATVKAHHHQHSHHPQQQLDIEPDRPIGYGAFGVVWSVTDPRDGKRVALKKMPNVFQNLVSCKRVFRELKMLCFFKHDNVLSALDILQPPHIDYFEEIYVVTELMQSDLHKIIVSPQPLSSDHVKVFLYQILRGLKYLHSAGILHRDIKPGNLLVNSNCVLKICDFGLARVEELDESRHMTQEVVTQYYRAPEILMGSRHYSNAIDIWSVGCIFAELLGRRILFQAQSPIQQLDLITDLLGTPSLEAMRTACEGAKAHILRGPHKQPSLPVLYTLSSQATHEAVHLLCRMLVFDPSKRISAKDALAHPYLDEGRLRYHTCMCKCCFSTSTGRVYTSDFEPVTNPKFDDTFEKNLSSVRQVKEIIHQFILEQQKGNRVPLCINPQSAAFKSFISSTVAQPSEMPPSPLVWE

Experiment [4] has as its target Mitogen-activated protein kinase 9 (Homo sapiens, UniProt P45984).
Note: in the data inactive means no Kd found up to 30 µM.

Sequence of Adenosine kinase (P55263 whole entry): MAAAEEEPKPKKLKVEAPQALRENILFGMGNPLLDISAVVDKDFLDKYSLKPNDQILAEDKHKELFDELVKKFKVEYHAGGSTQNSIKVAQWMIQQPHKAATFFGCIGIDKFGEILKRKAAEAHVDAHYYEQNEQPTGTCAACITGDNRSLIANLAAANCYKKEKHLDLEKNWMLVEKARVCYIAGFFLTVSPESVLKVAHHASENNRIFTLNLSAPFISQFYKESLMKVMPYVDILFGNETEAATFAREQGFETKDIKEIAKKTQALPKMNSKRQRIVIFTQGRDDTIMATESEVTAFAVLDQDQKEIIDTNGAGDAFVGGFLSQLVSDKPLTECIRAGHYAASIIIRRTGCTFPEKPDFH
Sequence of Mitogen-activated protein kinase 9 (P45984 whole entry): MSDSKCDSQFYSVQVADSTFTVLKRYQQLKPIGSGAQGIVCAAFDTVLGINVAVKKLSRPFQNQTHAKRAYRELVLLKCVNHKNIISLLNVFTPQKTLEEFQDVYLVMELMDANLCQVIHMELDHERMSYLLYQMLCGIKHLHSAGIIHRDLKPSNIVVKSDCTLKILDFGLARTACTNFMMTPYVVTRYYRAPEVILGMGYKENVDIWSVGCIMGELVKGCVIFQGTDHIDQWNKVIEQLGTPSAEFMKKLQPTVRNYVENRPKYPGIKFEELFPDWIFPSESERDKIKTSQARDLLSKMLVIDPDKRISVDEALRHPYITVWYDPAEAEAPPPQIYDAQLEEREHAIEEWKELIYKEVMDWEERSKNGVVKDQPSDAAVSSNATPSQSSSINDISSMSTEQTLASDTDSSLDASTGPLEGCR
Sequence of DNA topoisomerase 2-beta (Q02880 whole entry): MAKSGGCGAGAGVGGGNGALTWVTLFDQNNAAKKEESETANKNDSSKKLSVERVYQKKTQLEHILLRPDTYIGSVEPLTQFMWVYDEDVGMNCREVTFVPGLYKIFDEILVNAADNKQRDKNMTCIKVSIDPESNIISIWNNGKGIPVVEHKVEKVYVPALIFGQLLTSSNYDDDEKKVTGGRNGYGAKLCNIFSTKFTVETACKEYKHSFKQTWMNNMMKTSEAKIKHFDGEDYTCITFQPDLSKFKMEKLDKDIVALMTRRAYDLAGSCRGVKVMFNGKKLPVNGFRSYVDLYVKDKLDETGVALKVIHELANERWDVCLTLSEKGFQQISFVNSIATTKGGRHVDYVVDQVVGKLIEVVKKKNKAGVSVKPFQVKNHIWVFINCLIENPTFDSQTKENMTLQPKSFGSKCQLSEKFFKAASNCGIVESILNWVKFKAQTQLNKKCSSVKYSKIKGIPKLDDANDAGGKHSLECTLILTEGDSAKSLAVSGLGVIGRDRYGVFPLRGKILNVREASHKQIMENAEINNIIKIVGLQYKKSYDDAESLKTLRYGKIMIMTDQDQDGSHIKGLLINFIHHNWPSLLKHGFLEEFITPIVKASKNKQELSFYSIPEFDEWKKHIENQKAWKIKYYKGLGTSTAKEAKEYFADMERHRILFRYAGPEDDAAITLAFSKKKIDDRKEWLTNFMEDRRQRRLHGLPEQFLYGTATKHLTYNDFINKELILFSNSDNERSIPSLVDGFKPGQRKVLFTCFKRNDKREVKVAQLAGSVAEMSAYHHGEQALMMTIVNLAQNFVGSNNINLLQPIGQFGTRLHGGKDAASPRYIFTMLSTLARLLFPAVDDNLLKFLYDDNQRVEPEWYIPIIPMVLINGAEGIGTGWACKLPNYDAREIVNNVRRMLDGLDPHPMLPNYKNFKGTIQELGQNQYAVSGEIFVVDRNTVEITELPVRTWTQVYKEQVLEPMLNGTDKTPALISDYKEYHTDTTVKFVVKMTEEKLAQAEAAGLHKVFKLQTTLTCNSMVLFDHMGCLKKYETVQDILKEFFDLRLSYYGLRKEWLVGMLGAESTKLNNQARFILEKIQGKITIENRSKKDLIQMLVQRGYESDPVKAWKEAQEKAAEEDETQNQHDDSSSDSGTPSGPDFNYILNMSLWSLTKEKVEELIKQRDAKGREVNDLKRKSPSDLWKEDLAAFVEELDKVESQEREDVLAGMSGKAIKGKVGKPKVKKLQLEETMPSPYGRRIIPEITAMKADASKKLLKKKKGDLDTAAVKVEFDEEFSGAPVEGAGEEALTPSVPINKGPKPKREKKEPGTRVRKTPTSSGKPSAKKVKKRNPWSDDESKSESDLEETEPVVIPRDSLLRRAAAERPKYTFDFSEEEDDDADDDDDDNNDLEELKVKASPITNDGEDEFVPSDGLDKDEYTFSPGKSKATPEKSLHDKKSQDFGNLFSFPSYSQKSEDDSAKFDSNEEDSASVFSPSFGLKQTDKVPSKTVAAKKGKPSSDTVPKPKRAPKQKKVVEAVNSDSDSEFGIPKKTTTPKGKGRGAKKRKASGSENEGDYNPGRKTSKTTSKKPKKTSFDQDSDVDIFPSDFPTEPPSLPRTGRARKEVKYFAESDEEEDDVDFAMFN

As usually defined, the Kd is a measure of binding affinity in units of concentration. Consider `CNC(=O)c1ccc(-c2cnc3ncc(Cc4ccc5ncccc5c4)n3n2)cc1F` [CAPMATINIB], for which the Kd (on DNA topoisomerase 2-beta; in experiment [1]; at Adenosine kinase; in experiment [2]; in experiment [3]; in experiment [4]) was > 30 µM (inactive) in each case.

Take `CN1CC[C@@H](c2c(O)cc(O)c3c(=O)cc(-c4ccccc4Cl)oc23)[C@@H]1CO`: the Kd was > 30 µM (inactive) on DNA topoisomerase 2-beta; > 30 µM (inactive) in experiment [1]; > 30 µM (inactive) on Adenosine kinase; > 30 µM (inactive) in experiment [2]; 1.48 µM in experiment [3]; > 30 µM (inactive) in experiment [4].

For the compound `CCN1CCN(Cc2ccc(-c3cc4c(N[C@H](C)c5ccccc5)ncnc4[nH]3)cc2)CC1` [AEE-788], the Kd (at DNA topoisomerase 2-beta; in experiment [1]; at Adenosine kinase; in experiment [2]; in experiment [3]; in experiment [4]) was > 30 µM (inactive) in each case.

As to `C[C@@H]1CN(Cc2ccc(F)cc2)[C@@H](C)CN1C(=O)c1cc2c(C(=O)C(=O)N(C)C)cn(C)c2cc1Cl` [TALMAPIMOD], the Kd (at DNA topoisomerase 2-beta; in experiment [1]; at Adenosine kinase; in experiment [2]; in experiment [3]; in experiment [4]) was > 30 µM (inactive) throughout.

Regarding `O=C(Nc1ccc(-c2ccnc(Nc3ccc(N4CCOCC4)cc3)n2)cc1)C1CCCN1` (configuration not stated) [XL-019], the Kd on DNA topoisomerase 2-beta was > 30 µM (inactive); in experiment [1] it was > 30 µM (inactive); on Adenosine kinase, > 30 µM (inactive); in experiment [2], > 30 µM (inactive); in experiment [3], 0.027 µM; in experiment [4] it was > 30 µM (inactive).

As for `CN1CCC(COc2cnc(-c3cccc(Cn4nc(-c5cccc(C#N)c5)ccc4=O)c3)nc2)CC1` [TEPOTINIB], the Kd (at DNA topoisomerase 2-beta; in experiment [1]; at Adenosine kinase; in experiment [2]; in experiment [3]; in experiment [4]) was > 30 µM (inactive) in each case.

With `CCn1c(=O)c(-c2cc[nH]n2)cc2c(C)nc(N)nc21` [VOXTALISIB], the Kd (at DNA topoisomerase 2-beta; in experiment [1]; on Adenosine kinase; in experiment [2]; in experiment [3]; in experiment [4]) was > 30 µM (inactive) throughout.

In the case of `Cn1cc(-c2ccc(F)c(C(F)(F)F)c2)nc1C1CCN(c2ncnc3[nH]ncc23)CC1` [LY-2584702], the Kd (on DNA topoisomerase 2-beta; in experiment [1]; on Adenosine kinase; in experiment [2]; in experiment [3]; in experiment [4]) was > 30 µM (inactive) in each case.

With `Cc1cc2c(F)c(Oc3ncnn4cc(OC[C@@H](C)OC(=O)[C@H](C)N)c(C)c34)ccc2[nH]1` [BRIVANIB ALANINATE], the Kd (on DNA topoisomerase 2-beta; in experiment [1]; at Adenosine kinase; in experiment [2]; in experiment [3]; in experiment [4]) was > 30 µM (inactive) in each case.

Regarding `CNC(=O)c1cc(Oc2ccc(NC(=O)Nc3ccc(Cl)c(C(F)(F)F)c3)c(F)c2)ccn1` [REGORAFENIB], the Kd (on DNA topoisomerase 2-beta; in experiment [1]; on Adenosine kinase; in experiment [2]; in experiment [3]; in experiment [4]) was > 30 µM (inactive) each time.

`COC(=O)N[C@@H](C)CNc1nccc(-c2cn(C(C)C)nc2-c2cc(Cl)cc(NS(C)(=O)=O)c2F)n1` [ENCORAFENIB]: the Kd at DNA topoisomerase 2-beta is > 30 µM (inactive); in experiment [1] it was > 30 µM (inactive); at Adenosine kinase, > 30 µM (inactive); in experiment [2], > 30 µM (inactive); in experiment [3], 0.732 µM (active); in experiment [4] it was 0.915 µM (active).

For the compound `Cc1c(F)cc(C(=O)NC2CC2)cc1-c1ccc(C(=O)NCC(C)(C)C)cn1` [LOSMAPIMOD], the Kd (on DNA topoisomerase 2-beta; in experiment [1]; at Adenosine kinase; in experiment [2]; in experiment [3]; in experiment [4]) was > 30 µM (inactive) each time.

In the case of `Cc1cc(-c2cc(O)ccc2Cl)cc2nnc(Nc3ccc(OCCN4CCCC4)cc3)nc12`, the Kd at DNA topoisomerase 2-beta was > 30 µM (inactive); in experiment [1] it was > 30 µM (inactive); at Adenosine kinase, > 30 µM (inactive); in experiment [2], > 30 µM (inactive); in experiment [3], 0.003 µM (active); in experiment [4] it was > 30 µM (inactive).

For `C=CC(=O)N1CCC(Oc2cc3c(Nc4ccc(Cl)c(Cl)c4F)ncnc3cc2OC)CC1` [POZIOTINIB], the Kd (on DNA topoisomerase 2-beta; in experiment [1]; on Adenosine kinase; in experiment [2]; in experiment [3]; in experiment [4]) was > 30 µM (inactive) each time.

For the compound `CC[C@@H]1C(=O)N(C)c2cnc(Nc3ccc(C(=O)N[C@H]4CC[C@H](N5CCN(CC6CC6)CC5)CC4)cc3OC)nc2N1C(C)C` [VOLASERTIB], the Kd (at DNA topoisomerase 2-beta; in experiment [1]; on Adenosine kinase; in experiment [2]; in experiment [3]; in experiment [4]) was > 30 µM (inactive) each time.

As to `O=c1sn(-c2cccc3ccccc23)c(=O)n1Cc1ccccc1` [TIDEGLUSIB], the Kd (at DNA topoisomerase 2-beta; in experiment [1]; on Adenosine kinase; in experiment [2]; in experiment [3]; in experiment [4]) was > 30 µM (inactive) throughout.

As for `CO[C@H]1C[C@@H]2CC[C@@H](C)[C@@](O)(O2)C(=O)C(=O)N2CCCC[C@H]2C(=O)O[C@H]([C@H](C)C[C@@H]2CC[C@@H](OCCO)[C@H](OC)C2)CC(=O)[C@H](C)/C=C(\C)[C@@H](O)[C@@H](OC)C(=O)[C@H](C)C[C@H](C)/C=C/C=C/C=C/1C` [EVEROLIMUS], the Kd (on DNA topoisomerase 2-beta; in experiment [1]; on Adenosine kinase; in experiment [2]; in experiment [3]; in experiment [4]) was > 30 µM (inactive) each time.
